What was measured:
[1] = Drug uptake in tumor of human MDA-MB-231 cells xenografted athymic nude BALB/c mouse at 3 to 3.7 MBq, iv up to 60 mins by PET scanning analysis; format: ADME, organism-based, Neoplasm; conditions: in vivo, 1 h
[2] = Drug uptake in tumor of human MDA-MB-231 cells xenografted athymic nude BALB/c mouse at 3 to 3.7 MBq, iv up to 10 mins by PET scanning analysis; format: ADME, organism-based, Neoplasm; conditions: in vivo
[3] = system: Nucleic Acid; experiment: Ratio of drug level in liver to blood in athymic nude BALB/c mouse xenografted with human MDA-MB-231 cells at 3 to 3.7 MBq, iv after 60 mins by gamma counting; format: ADME, organism-based; conditions: other tissue, 1 h
[4] = system: Heart; experiment: Drug uptake in heart of athymic nude BALB/c mouse xenografted with human MDA-MB-231 cells at 3 to 3.7 MBq, iv at 30 to 60 mins by PET scanning analysis; format: ADME, organism-based; conditions: in vivo
[5] = system: Urinary bladder; experiment: Drug uptake in bladder of athymic nude BALB/c mouse xenografted with human MDA-MB-231 cells at 3 to 3.7 MBq, iv at 30 to 60 mins by PET scanning analysis; format: ADME, organism-based; conditions: in vivo
[6] = system: Kidney; experiment: Drug uptake in kidney of athymic nude BALB/c mouse xenografted with human MDA-MB-231 cells at 3 to 3.7 MBq, iv up to 60 mins by PET scanning analysis; format: ADME, organism-based; conditions: in vivo, 1 h

Row | SMILES | Drug uptake [1] | Drug uptake [2] | Ratio [3] | Drug uptake [4] | Drug uptake [5] | Drug uptake [6]
1 | O[C@@H]1[C@@H](O)[C@H](O)[C@@H]([18F])[C@H](O)[C@H]1O | Active | Active | 1.5 | – | – | –
2 | O[C@@H]1[C@@H](O)[C@H](O)[C@H]([18F])[C@H](O)[C@H]1O | Active | Active | 1.7 | Active | Active | Active

— ChEMBL document CHEMBL2086228, “Radiosynthesis and in vivo tumor uptake of 2-deoxy-2-[(18)F]fluoro-myo-inositol” (Bioorg Med Chem Lett, 2012)
